IC50 data for 28 molecules are collected here from patent US20240343704A1, “HALO-SUBSTITUTED AMINO PYRIDINE COMPOUNDS AS INHIBITORS OF THE HAEMATOPOIETIC PROGENITOR KINASE 1 (HPK1)” (priority 2021, published 2024).

The IC50 is the midpoint of a concentration-inhibition curve.

The assay has as its target T1, Recombinant (1-346) HPK1 (h) (Homo sapiens, UniProt Q92918).
T1 construct: Recombinant (1-346) HPK1 (h) is incubated with 8 mM MOPS pH 7.0
T1 sequence (Q92918 1-346): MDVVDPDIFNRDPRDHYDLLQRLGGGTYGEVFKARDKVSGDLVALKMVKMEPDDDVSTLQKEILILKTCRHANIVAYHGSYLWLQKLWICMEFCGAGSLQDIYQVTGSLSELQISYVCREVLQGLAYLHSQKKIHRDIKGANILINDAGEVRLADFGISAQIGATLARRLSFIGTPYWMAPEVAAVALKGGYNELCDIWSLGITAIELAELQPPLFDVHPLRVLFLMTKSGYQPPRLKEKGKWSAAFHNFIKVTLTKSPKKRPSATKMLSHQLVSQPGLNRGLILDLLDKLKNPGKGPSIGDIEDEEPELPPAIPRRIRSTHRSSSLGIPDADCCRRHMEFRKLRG
The assay is described as follows: HPK1 Human STE Kinase Enzymatic Radiometric Assay. It counts as biochemical. As to conditions: read-out: HPK1 IC50 nM Range*. On the procedure:
A stock solution of 10 mM of test compound is prepared in DMSO. The compound plate was prepared by 3-fold and 9-point serial dilutions. […] The reaction is initiated by The addition of the Mg/ATP mix. After incubation for 40 minutes at RT, the reaction is stopped by the addition of phosphoric acid to a concentration of 0.5%.
Take `Nc1nc(F)c(-c2ccc(N3CCCCC3)cc2)cc1-c1ccc2c(c1)CCNC2=O` [I-60, 6-(2-amino-6-fluoro-5-(4-(piperidin-1-yl)phenyl)pyridin-3-yl)-3,4-dihydroisoquinolin-1(2H)-one]: the IC50 was 0.1 to 10 nM. Next, `Nc1nc(F)c(-c2ccc(OC3CCNCC3)c(C(F)(F)F)c2)cc1-c1ccc2c(c1)CCNC2=O` [I-190, 6-(2-amino-6-fluoro-5-(4-(piperidin-4-yloxy)-3-(trifluoromethyl)phenyl)pyridin-3-yl)-3,4-dihydroisoquinolin-1(2H)-one]: 11 to 100 nM; `CC(=O)N1CCC(Oc2ccc(-c3cc(-c4cc5c(cc4F)C(=O)NCC5)c(N)nc3F)cc2C#N)CC1` [I-291, 2-((1-acetylpiperidin-4-yl)oxy)-5-(6-amino-2-fluoro-5-(7-fluoro-1-oxo-1,2,3,4-tetrahydroisoquinolin-6-yl)pyridin-3-yl)benzonitrile]: 0.1 to 10 nM. With `Nc1nc(F)c(-c2ccc(CN3CCOCC3)cc2)cc1-c1cc(F)c2c(c1)CCNC2=O` [I-360, 6-(2-amino-6-fluoro-5-(4-(morpholinomethyl)phenyl)pyridin-3-yl)-8-fluoro-3,4-dihydroisoquinolin-1(2H)-one] the figure was 0.1 to 10 nM; with `Nc1nc(F)c(-c2ccc(N3CCOCC3)c(F)c2)cc1-c1cc(F)c2c(c1)CCNC2=O` [I-361, 6-(2-amino-6-fluoro-5-(3-fluoro-4-morpholinophenyl)pyridin-3-yl)-8-fluoro-3,4-dihydroisoquinolin-1(2H)-one], 0.1 to 10 nM. Consider `CC(C)N1CCN(c2ccc(-c3cc(-c4ccc5c(=O)[nH]c(C6CC6)nc5c4)c(N)nc3F)cc2)CC1` [I-412, 7-(2-amino-6-fluoro-5-(4-(4-isopropylpiperazin-1-yl)phenyl)pyridin-3-yl)-2-cyclopropylquinazolin-4(3H)-one], for which the IC50 lay within 101 to 1000 nM. Next, `CC(C)N1CCN(c2ccc(-c3cc(-c4ccc5c(=O)[nH]c(C6CCC6)nc5c4)c(N)nc3F)cc2)CC1` [I-413, 7-(2-amino-6-fluoro-5-(4-(4-isopropylpiperazin-1-yl)phenyl)pyridin-3-yl)-2-cyclobutylquinazolin-4(3H)-one]: 101 to 1000 nM; `CC(C)N1CCN(c2ccc(-c3cc(-c4ccc5c(=O)[nH]c(Cl)nc5c4)c(N)nc3F)cc2)CC1` [I-418, 7-(2-amino-6-fluoro-5-(4-(4-isopropylpiperazin-1-yl)phenyl)pyridin-3-yl)-2-chloroquinazolin-4(3H)-one]: 101 to 1000 nM. With `COc1nc2cc(-c3cc(-c4ccc(N5CCN(C(C)C)CC5)cc4)c(F)nc3N)ccc2c(=O)[nH]1` [I-419, 7-(2-amino-6-fluoro-5-(4-(4-isopropylpiperazin-1-yl)phenyl)pyridin-3-yl)-2-methoxyquinazolin-4(3H)-one] the figure was 11 to 100 nM; with `CC(C)N1CCN(c2ccc(-c3cc(-c4ccc5c(=O)[nH]c(N(C)C)nc5c4)c(N)nc3F)cc2)CC1` [I-420, 7-(2-amino-6-fluoro-5-(4-(4-isopropylpiperazin-1-yl)phenyl)pyridin-3-yl)-2-(dimethylamino)quinazolin-4(3H)-one], 101 to 1000 nM.

For `CNc1nc2cc(-c3cc(-c4ccc(N5CCN(C(C)C)CC5)cc4)c(F)nc3N)ccc2c(=O)[nH]1` [I-421, 7-(2-amino-6-fluoro-5-(4-(4-isopropylpiperazin-1-yl)phenyl)pyridin-3-yl)-2-(methylamino)quinazolin-4(3H)-one], the IC50 was 11 to 100 nM. For `CC(C)N1CCN(c2ccc(-c3cc(-c4ccc5c(=O)[nH]c(N)nc5c4)c(N)nc3F)cc2)CC1` [I-422, 2-amino-7-(2-amino-6-fluoro-5-(4-(4-isopropylpiperazin-1-yl)phenyl)pyridin-3-yl)quinazolin-4(3H)-one], the IC50 was in the range of 0.1 to 10 nM. With `CC(C)N1CCN(c2ccc(-c3cc(-c4ccc5c(c4)S(=O)(=O)CNC5=O)c(N)nc3F)cc2)CC1` [I-424, 7-(2-amino-6-fluoro-5-(4-(4-isopropylpiperazin-1-yl)phenyl)pyridin-3-yl)-2,3-dihydro-4H-benzo[e][1,3]thiazin-4-one 1,1-dioxide] the figure was 11 to 100 nM; with `CCN(C)Cc1cc(-c2cc(-c3ccc4c(c3)CCNC4=O)c(N)nc2F)ccc1C1CCOCC1` [I-428, 6-(2-amino-5-(3-((ethyl(methyl)amino)methyl)-4-(tetrahydro-2H-pyran-4-yl)phenyl)-6-fluoropyridin-3-yl)-3,4-dihydroisoquinolin-1(2H)-one], 11 to 100 nM. Next, `CN1CC2(CCN(c3ccc(-c4cc(-c5ccc6c(c5)CCNC6=O)c(N)nc4F)cc3)CC2)C1` [I-430, 6-(2-amino-6-fluoro-5-(4-(2-methyl-2,7-diazaspiro[3.5]nonan-7-yl)phenyl)pyridin-3-yl)-3,4-dihydroisoquinolin-1(2H)-one]: 0.1 to 10 nM; `CN(C)Cc1cc(-c2cc(-c3cc4c(cc3F)C(=O)NCC4)c(N)nc2F)ccc1N1CCOCC1` [I-433, 6-(2-amino-5-(3-((dimethylamino)methyl)-4-morpholinophenyl)-6-fluoropyridin-3-yl)-7-fluoro-3,4-dihydroisoquinolin-1(2H)-one]: 0.1 to 10 nM; `COc1cc2c(cc1-c1cc(-c3ccc4c(c3)CCNC4=O)c(N)nc1F)CN(C)CC2` [I-438, 6-(2-amino-6-fluoro-5-(6-methoxy-2-methyl-1,2,3,4-tetrahydroisoquinolin-7-yl)pyridin-3-yl)-3,4-dihydroisoquinolin-1(2H)-one]: 11 to 100 nM. Consider `CN(C)Cc1cc(-c2cc(-c3ccc4c(c3)CCNC4=O)c(N)nc2F)ccc1N1CCN(C(=O)OC(C)(C)C)CC1` [I-442, tert-butyl 4-(4-(6-amino-2-fluoro-5-(1-oxo-1,2,3,4-tetrahydroisoquinolin-6-yl)pyridin-3-yl)-2-((dimethylamino)methyl)phenyl)piperazine-1-carboxylate], for which the IC50 lay in the range of 0.1 to 10 nM.

Take `CN1CCC[C@H]1c1cccc(-c2cc(-c3ccc4c(c3)CCNC4=O)c(N)nc2F)c1` [I-443, (S)-6-(2-amino-6-fluoro-5-(3-(1-methylpyrrolidin-2-yl)phenyl)pyridin-3-yl)-3,4-dihydroisoquinolin-1(2H)-one]: the IC50 lay within 101 to 1000 nM. Take `CN1CCC[C@H]1c1cccc(-c2cc(-c3cc4c(cc3F)C(=O)NCC4)c(N)nc2F)c1` [I-444, (S)-6-(2-amino-6-fluoro-5-(3-(1-methylpyrrolidin-2-yl)phenyl)pyridin-3-yl)-7-fluoro-3,4-dihydroisoquinolin-1(2H)-one]: the IC50 fell in the range of 11 to 100 nM.

For the molecule `CN(C)Cc1cc(-c2cc(-c3cc4c(cc3F)C(=O)NCC4)c(N)nc2F)ccc1N1CCN(CCCC(F)F)CC1` [I-447, 6-(2-amino-5-(4-(4-(4,4-difluorobutyl)piperazin-1-yl)-3-((dimethylamino)methyl)phenyl)-6-fluoropyridin-3-yl)-7-fluoro-3,4-dihydroisoquinolin-1(2H)-one], the IC50 is 0.1 to 10 nM. Consider `COCCN1CCc2c(C)cc(-c3cc(-c4ccc5c(c4)CCNC5=O)c(N)nc3F)cc2C1` [I-448, 6-(2-amino-6-fluoro-5-(2-(2-methoxyethyl)-5-methyl-1,2,3,4-tetrahydroisoquinolin-7-yl)pyridin-3-yl)-3,4-dihydroisoquinolin-1(2H)-one], for which the IC50 lay within 0.1 to 10 nM.

Consider `COC1(C)NC(=O)c2ccc(-c3cc(-c4ccc(N5CCN(C(C)C)CC5)cc4)c(F)nc3N)cc2C1(F)F` (stereo not shown) [I-450, 6-(2-amino-6-fluoro-5-(4-(4-isopropylpiperazin-1-yl)phenyl)pyridin-3-yl)-4,4-difluoro-3-methoxy-3-methyl-3,4-dihydroisoquinolin-1(2H)-one], for which the IC50 fell in the range of 11 to 100 nM. For `CN(C)Cc1cc(-c2cc(-c3cc4c(cc3F)C(=O)NCC4)c(N)nc2F)ccc1N1CCN(C2CCCC2)CC1` [I-452, 6-(2-amino-5-(4-(4-cyclopentylpiperazin-1-yl)-3-((dimethylamino)methyl)phenyl)-6-fluoropyridin-3-yl)-7-fluoro-3,4-dihydroisoquinolin-1(2H)-one], the IC50 was in the range of 0.1 to 10 nM. Regarding `CN(C)Cc1cc(-c2cc(-c3ccc4c(=O)[nH]ccc4c3)c(N)nc2F)ccc1N1CCN(CCCC(F)F)CC1` [I-453, 6-(2-amino-5-(4-(4-(4,4-difluorobutyl)piperazin-1-yl)-3-((dimethylamino)methyl)phenyl)-6-fluoropyridin-3-yl)isoquinolin-1(2H)-one], the IC50 was in the range of 0.1 to 10 nM. With `Cc1[nH]c(=O)c2ccc(-c3cc(-c4ccc(N5CCN(CC6CC6)CC5)cc4)c(F)nc3N)cc2c1F` [I-456, 6-(2-amino-5-(4-(4-(cyclopropylmethyl)piperazin-1-yl)phenyl)-6-fluoropyridin-3-yl)-4-fluoro-3-methylisoquinolin-1(2H)-one], the 50% inhibitory concentration (IC50) fell in the range of 0.1 to 10 nM. For `CC(C)N1CCN(c2ccc(-c3cc(-c4ncc5c(n4)CCNC5=O)c(N)nc3F)cc2)CC1` [I-458, 2-(2-amino-6-fluoro-5-(4-(4-isopropylpiperazin-1-yl)phenyl)pyridin-3-yl)-7,8-dihydropyrido[4,3-d]pyrimidin-5(6H)-one], the half-maximal inhibitory concentration (IC50) lay within 0.1 to 10 nM.

For the molecule `COc1ccc(-c2cc(-c3ccc4c(c3)CCNC4=O)c(N)nc2F)cc1CN(C)C` [I-459, 6-(2-amino-5-(3-((dimethylamino)methyl)-4-methoxyphenyl)-6-fluoropyridin-3-yl)-3,4-dihydroisoquinolin-1(2H)-one], the IC50 lay in the range of 11 to 100 nM.
